Where a chain is given by its changes, count along the chain named. Where a SMILES comes first, the peptide text is derived from it. Bridges are numbered along the chain shown (N, C = ends).
What was measured:
Assay in all cases: cAMP accumulation
Assay type in all cases: cell-based
hCTR T280A = biological target: T1, hCTR T280A (Homo sapiens, UniProt P30988, T280A); details: mean ± S.E.M.; for Emax: cAMP maximal response, SEM; for EC50: cAMP, CV1-FlpIn cells, 30 min, IBMX
T1 construct: expressed in transfected cells
T1 sequence (P30988 25-474 T280A): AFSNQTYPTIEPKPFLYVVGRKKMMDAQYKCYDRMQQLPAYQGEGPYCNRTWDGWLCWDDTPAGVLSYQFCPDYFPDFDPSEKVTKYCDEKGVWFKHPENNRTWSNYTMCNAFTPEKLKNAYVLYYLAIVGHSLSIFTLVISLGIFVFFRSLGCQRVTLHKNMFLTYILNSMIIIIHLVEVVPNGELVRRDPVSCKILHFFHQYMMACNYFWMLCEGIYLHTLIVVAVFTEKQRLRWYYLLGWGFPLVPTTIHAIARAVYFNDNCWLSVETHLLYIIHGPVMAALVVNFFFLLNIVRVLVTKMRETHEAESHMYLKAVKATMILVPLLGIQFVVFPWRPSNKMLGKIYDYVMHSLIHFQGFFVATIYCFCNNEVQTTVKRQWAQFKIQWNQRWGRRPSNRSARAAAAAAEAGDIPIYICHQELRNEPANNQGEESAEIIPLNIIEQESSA
Procedure: (§1) Cells (2.5 × 10^4 cells/well) were seeded into 96-well plates and incubated overnight. Cells were stimulated with increasing concentrations of ligands for 30 min in the presence of IBMX. The liquid was discarded, changed to absolute ethanol and volatilized to dryness at room temperature. […] Data were normalized to the response of 100 μM forskolin.
(§2) Data were corrected for radioligand occupancy using the Cheng-Prusoff equation in Prism; as such data are reported as pKi. Emax and EC50 were estimated from concentration-response curves using with a 3-parameter logistic equation in Prism (v7). These values are a composite of functional affinity, efficacy and stimulus response coupling. […] Significance was accepted at P < 0.05.

hCTR V375A = biological target: T2, hCTR V375A (Homo sapiens, UniProt P30988, V375A); details: mean ± S.E.M.; for Emax: cAMP maximal response, SEM; for EC50: cAMP, CV1-FlpIn cells, 30 min, IBMX
T2 construct: c-Myc (N); expressed in transfected cells
T2 sequence (P30988 25-474 V375A): T1 sequence (P30988 25-474 T280A) with A256T, V351A
Procedure: as §1, §2

hCTR P360A = biological target: T3, hCTR P360A (Homo sapiens, UniProt P30988, P360A); details: mean ± S.E.M.; for Emax: cAMP maximal response, SEM; for EC50: cAMP, CV1-FlpIn cells, 30 min, IBMX
T3 construct: expressed in transfected cells
T3 sequence (P30988 25-474 P360A): T1 sequence (P30988 25-474 T280A) with A256T, P336A
Procedure: as §1, §2

hCTR C289A = biological target: T4, hCTR C289A (Homo sapiens, UniProt P30988, C289A); details: mean ± S.E.M.; for Emax: cAMP maximal response, SEM
T4 construct: c-Myc (N); expressed in transfected cells
T4 sequence (P30988 25-474 C289A): T1 sequence (P30988 25-474 T280A) with A256T, C265A
Procedure: as §1, §2

hCTR N365A = biological target: T5, hCTR N365A (Homo sapiens, UniProt P30988, N365A); details: mean ± S.E.M.; for Emax: cAMP maximal response, SEM; for EC50: cAMP, CV1-FlpIn cells, 30 min, IBMX
T5 construct: c-Myc (N); expressed in transfected cells
T5 sequence (P30988 25-474 N365A): T1 sequence (P30988 25-474 T280A) with A256T, N341A
Procedure: as §1, §2

Row | EC50 (hCTR T280A) [nM] | EC50 (hCTR V375A) [nM] | EC50 (hCTR P360A) [nM] | EC50 (hCTR N365A) [nM] | EC50 (hCTR C289A; cAMP, CV1-FlpIn cells, 30 min, IBMX) [nM] | SMILES | Emax (hCTR T280A) [%] | Emax (hCTR V375A) [%] | Emax (hCTR P360A) [%] | Emax (hCTR C289A) [%] | Emax (hCTR N365A) [%]
1 | – | – | – | – | – | CC[C@H](C)[C@H](NC(=O)[C@H](C)NC(=O)[C@@H](NC(=O)[C@H](CCC(N)=O)NC(=O)[C@@H]1CCCN1C(=O)[C@H](Cc1ccccc1)NC(=O)[C@@H](NC(=O)[C@H](Cc1c[nH]cn1)NC(=O)[C@H](Cc1ccccc1)NC(=O)[C@H](CCCCN)NC(=O)[C@H](CC(N)=O)NC(=O)[C@H](Cc1ccccc1)NC(=O)[C@H](CC(=O)O)NC(=O)[C@H](CCC(N)=O)NC(=O)[C@@H](NC(=O)[C@H](Cc1ccc(O)cc1)NC(=O)[C@@H](NC(=O)CNC(=O)[C@H](CC(C)C)NC(=O)[C@H](CCSC)NC(=O)[C@@H]1CSSC[C@H](N)C(=O)NCC(=O)N[C@@H](CC(N)=O)C(=O)N[C@@H](CC(C)C)C(=O)N[C@@H](CO)C(=O)N[C@@H]([C@@H](C)O)C(=O)N1)[C@@H](C)O)[C@@H](C)O)[C@@H](C)O)[C@@H](C)O)C(=O)NCC(=O)N[C@H](C(=O)NCC(=O)N[C@@H](C)C(=O)N1CCC[C@H]1C(N)=O)C(C)C [hCT] | 97 ± 6 | 122 ± 7 | 152 ± 8 | 148 ± 7 | 96 ± 4
2 | 3.31 | 20.4 | 17.4 | 15.5 | – | CC(C)C[C@H](NC(=O)CNC(=O)[C@H](C)NC(=O)[C@H](CC(C)C)NC(=O)[C@H](CCCNC(=N)N)NC(=O)[C@H](Cc1cnc[nH]1)NC(=O)[C@@H](NC(=O)[C@@H](NC(=O)[C@@H]1CSSC[C@H](NC(=O)[C@H](C)N)C(=O)N[C@@H](CC(=O)O)C(=O)N[C@@H]([C@@H](C)O)C(=O)N[C@@H](C)C(=O)N[C@@H]([C@@H](C)O)C(=O)N1)C(C)C)[C@@H](C)O)C(=O)N[C@@H](CC(C)C)C(=O)N[C@@H](CO)C(=O)N[C@@H](CCCNC(=N)N)C(=O)N[C@@H](CO)C(=O)NCC(=O)NCC(=O)N[C@H](C(=O)N[C@H](C(=O)N[C@@H](CCCCN)C(=O)N[C@@H](CC(N)=O)C(=O)N[C@@H](CC(N)=O)C(=O)N[C@@H](Cc1ccccc1)C(=O)N[C@H](C(=O)N1CCC[C@H]1C(=O)N[C@H](C(=O)N[C@@H](CC(N)=O)C(=O)N[C@H](C(=O)NCC(=O)N[C@@H](CO)C(=O)N[C@@H](CCCCN)C(=O)N[C@@H](C)C(=O)N[C@@H](Cc1ccccc1)C(N)=O)C(C)C)[C@@H](C)O)C(C)C)C(C)C)C(C)C [hαCGRP] | 107 ± 21 | 114 ± 17 | 48 ± 5 | – | 111 ± 13
3 | 0.0398 | 0.0316 | 0.132 | 0.0316 | 1.02 | CSCC[C@H](NC(=O)CNC(=O)[C@H](CO)NC(=O)[C@H](Cc1ccccc1)NC(=O)[C@H](CCCNC(=N)N)NC(=O)[C@H](Cc1c[nH]cn1)NC(=O)[C@H](Cc1ccccc1)NC(=O)[C@H](CC(N)=O)NC(=O)[C@H](CC(N)=O)NC(=O)[C@H](CC(C)C)NC(=O)[C@H](CC(N)=O)NC(=O)[C@H](CCCNC(=N)N)NC(=O)[C@H](Cc1c[nH]c2ccccc12)NC(=O)[C@H](Cc1ccc(O)cc1)NC(=O)[C@H](C)NC(=O)[C@H](CO)NC(=O)[C@H](CC(C)C)NC(=O)[C@@H](NC(=O)[C@@H]1CSSC[C@H](N)C(=O)N[C@@H](CO)C(=O)N[C@@H](CC(N)=O)C(=O)N[C@@H](CC(C)C)C(=O)N[C@@H](CO)C(=O)N[C@@H]([C@@H](C)O)C(=O)N1)C(C)C)C(=O)NCC(=O)N[C@@H](Cc1ccccc1)C(=O)NCC(=O)N1CCC[C@H]1C(=O)N[C@@H](CCC(=O)O)C(=O)N[C@H](C(=O)N1CCC[C@H]1C(N)=O)[C@@H](C)O [pCT] (H-CSNLSTCVLSAYWRNLNNFHRFSGMGFGPETP-NH2; disulfide 1-7) | 113 ± 5 | 151 ± 8 | 146 ± 13 | 115 ± 7 | 95 ± 5
4 | – | – | – | – | – | CC(C)C[C@H](NC(=O)[C@H](CC(N)=O)NC(=O)[C@H](CC(N)=O)NC(=O)[C@H](CO)NC(=O)[C@H](CO)NC(=O)[C@H](CCCNC(=N)N)NC(=O)[C@@H](NC(=O)[C@H](CC(C)C)NC(=O)[C@H](Cc1ccccc1)NC(=O)[C@H](CC(N)=O)NC(=O)[C@H](C)NC(=O)[C@H](CC(C)C)NC(=O)[C@H](CCCNC(=N)N)NC(=O)[C@H](CCC(N)=O)NC(=O)[C@@H](NC(=O)[C@H](C)NC(=O)[C@@H]1CSSC[C@H](NC(=O)[C@@H](N)CCCCN)C(=O)N[C@@H](CC(N)=O)C(=O)N[C@@H]([C@@H](C)O)C(=O)N[C@@H](C)C(=O)N[C@@H]([C@@H](C)O)C(=O)N1)[C@@H](C)O)C(C)C)C(=O)NCC(=O)N1CCC[C@H]1C(=O)N[C@H](C(=O)N[C@@H](CC(C)C)C(=O)N1CCC[C@H]1C(=O)N1CCC[C@H]1C(=O)N[C@H](C(=O)N[C@@H](CC(N)=O)C(=O)N[C@H](C(=O)NCC(=O)N[C@@H](CO)C(=O)N[C@@H](CC(N)=O)C(=O)N[C@H](C(=O)N[C@@H](Cc1ccc(O)cc1)C(N)=O)[C@@H](C)O)C(C)C)[C@@H](C)O)C(C)C [rAmy] | 69 ± 8 | 92 ± 9 | 115 ± 13 | 89 ± 23 | 72 ± 8
5 | – | – | – | – | – | CC(C)C[C@H](NC(=O)[C@H](CCCCN)NC(=O)CNC(=O)[C@H](CC(C)C)NC(=O)[C@@H](NC(=O)[C@@H]1CSSC[C@H](N)C(=O)N[C@@H](CO)C(=O)N[C@@H](CC(N)=O)C(=O)N[C@@H](CC(C)C)C(=O)N[C@@H](CO)C(=O)N[C@@H]([C@@H](C)O)C(=O)N1)C(C)C)C(=O)N[C@@H](CO)C(=O)N[C@@H](CCC(N)=O)C(=O)N[C@@H](CCC(=O)O)C(=O)N[C@@H](CC(C)C)C(=O)N[C@@H](Cc1c[nH]cn1)C(=O)N[C@@H](CCCCN)C(=O)N[C@@H](CC(C)C)C(=O)N[C@@H](CCC(N)=O)C(=O)N[C@H](C(=O)N[C@@H](Cc1ccc(O)cc1)C(=O)N1CCC[C@H]1C(=O)N[C@@H](CCCNC(=N)N)C(=O)N[C@H](C(=O)N[C@@H](CC(N)=O)C(=O)N[C@H](C(=O)NCC(=O)N[C@@H](CO)C(=O)NCC(=O)N[C@H](C(=O)N1CCC[C@H]1C(N)=O)[C@@H](C)O)[C@@H](C)O)[C@@H](C)O)[C@@H](C)O [sCT] | 107 ± 14 | 106 ± 5 | 100 ± 5 | 140 ± 7 | 94 ± 5

— publication PMC5908784, “Extracellular loops 2 and 3 of the calcitonin receptor selectively modify agonist binding and efficacy” (Biochemical Pharmacology, 2018)
